The results in this text go back to ChEMBL document CHEMBL1201862, “PubChem BioAssay data set” (2004).

Experiment in all cases: inhibition of tumour cell growth, NCI panel, 48 h
The test system of assay [1] is HOP-18.
The test system of assay [2] is M19-MEL.
Assay [3] deals with DMS-273.
The test system of assay [4] is SNB-78.
Assay [5] concerns DLD-1.
Assay [6] relates to DMS-114.
Assay [7] relates to LXFL 529.
The test system of assay [8] is RXF 631.
For assay [9], the system named is XF498.

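Assay format: 96-well plates, 48-hour exposure. Here, GI50 denotes the concentration required for 50% inhibition of growth.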 Activity calls are given as the source filed them. Cut-off read from the data, not from the text of the source: active = GI50 up to about 1.1 µM and inactive = higher.

For `C=C(Br)C(C)(Br)CCC(Br)C(C)(C)Br` (stereo not given), the GI50 in assay [1] was > 100 µM (inactive); in [2], 17 µM (inactive); in assay [3], 19.2 µM (inactive); in assay [4], 26.2 µM (inactive); in [5], 37 µM (inactive); in [6], 17.2 µM (inactive). In addition, the GI50 in [7] is 20.5 µM (inactive).

Consider `O=c1[nH]nc(-c2ccccc2)c(-c2ccccc2)c1-n1nc(-c2ccccc2)c2ccccc2c1=O`, for which the GI50 in assay [1] was > 100 µM (inactive); in assay [2], > 100 µM (inactive); in assay [3], 89.5 µM (inactive); in [4] it was > 100 µM (inactive); in assay [5] it was 76.7 µM (inactive); in assay [7], 46.8 µM (inactive).

Consider `O=C(Nc1nnc(S)[nH]1)C(=O)C1C(=O)Nc2ccccc2[S+]1[O-]` (stereo not given), for which the GI50 in assay [1], in assay [2], in assay [3], in [6], in assay [7] and in assay [8] was > 100 µM (inactive) each time.

As to `COC(=O)/C(=N\N)C(C(=O)C(=O)Nc1nnc(S)[nH]1)c1nc2ccc([N+](=O)[O-])cc2nc1O` (stereo not given), the GI50 in [1], in assay [2], in assay [3], in [4], in [5] and in [6] was > 100 µM (inactive) throughout. Besides, the GI50 in [7] and in assay [8] was > 100 µM (inactive) throughout.

Regarding `O=C1N=C2Sc3ccc4ccccc4c3N2C1=O`, the GI50 in assay [1] is 15 µM (inactive); in [9] it was 19.2 µM (inactive); in [2], 36.1 µM (inactive); in [3], 22.8 µM (inactive); in assay [4], 26.4 µM (inactive); in [5] it was 31.1 µM (inactive). The GI50 in assay [6] is 39.7 µM (inactive); in [7], 18.7 µM (inactive); in assay [8], 20.8 µM (inactive).

With `CO[C@@H]1C=C[C@@]23c4cc5c(cc4C(=O)O[C@H]2CN(C)[C@H]3C1)OCO5`, the GI50 in [1], in assay [9], in [2], in assay [3], in assay [4] and in assay [5] was > 100 µM (inactive) in each case. Besides, the GI50 in assay [6] and in assay [7] was > 100 µM (inactive) each time.

On to `COc1ccccc1OCC(COC(=O)Nc1ccc(C)cc1)OC(=O)Nc1ccc(C)cc1` (stereo not given), for which the GI50 in assay [1] was 18.4 µM (inactive); in assay [3], 16.7 µM (inactive); in assay [4], 26.7 µM (inactive); in [5] it was 16 µM (inactive); in assay [6], 14.7 µM (inactive); in assay [7] it was 27.1 µM (inactive). Further, the GI50 in assay [8] was 19.4 µM (inactive).

As to `CC1(C(=O)O)CCC[C@@]2(C)C1CC[C@@]1(C)c3cocc3CCC21` (stereo not given in full), the GI50 in [1], in assay [9], in [2], in assay [3], in assay [4] and in assay [5] was > 100 µM (inactive) throughout. Also, the GI50 in assay [6], in [7] and in assay [8] was > 100 µM (inactive) each time.

Turning to `COc1ccccc1/C=C(\NC(=O)c1ccccc1)c1nc2ccc(Cl)cc2[nH]1`, the GI50 in assay [1] was 26.2 µM (inactive); in [9] it was 34.4 µM (inactive); in [2], 32.9 µM (inactive); in [3] it was 37.1 µM (inactive); in assay [4], 38.9 µM (inactive); in assay [5], 23.8 µM (inactive). Moreover, the figures for the GI50 in assay [6] and in assay [7] were 17.2 µM (inactive) and 21.1 µM (inactive), respectively.

On to `COc1ccc2oc(-c3ccc(OC)c(OC)c3OC)cc(=O)c2c1`, for which the GI50 was 39.7 µM (inactive) in assay [9]; 57 µM (inactive) in assay [2]; 49.7 µM (inactive) in assay [5]; 31.8 µM (inactive) in assay [6]; 39.4 µM (inactive) in [7].

In the case of `CC1/C=C/[C@@]2(C)CCC(C(C)(C)O)C2C(O)C[C@](C)(O)/C=C/C1` (stereo not given in full), the GI50 in [1], in [9], in [3], in assay [4], in assay [5] and in assay [6] was > 100 µM (inactive) throughout. Further, the GI50 in assay [7] is > 100 µM (inactive).

`COc1ccc(NC(=O)CC(=O)n2nc(-c3ccccc3)c(/N=N/c3ccc(C)cc3)c2-c2ccccc2)cc1`: the GI50 is 24.3 µM (inactive) in assay [1]; 12.4 µM (inactive) in assay [9]; 28.9 µM (inactive) in assay [2]; 33.3 µM (inactive) in assay [3]; 20.8 µM (inactive) in assay [4]; > 79.3 µM (inactive) in assay [5]. Besides, the values for the GI50 in assay [6], in assay [7] and in [8] were > 49.5 µM (inactive), 40.8 µM (inactive) and 54.5 µM (inactive), respectively.

`O=S(=O)(c1ccccc1)C1CN(Cc2ccccc2)CCN(Cc2ccccc2)C1`: the GI50 in [9] was 18.8 µM (inactive); in assay [2], 14.4 µM (inactive); in [3], 12.7 µM (inactive); in assay [5], 12.1 µM (inactive); in [6], 10 µM (inactive); in assay [7], 11.3 µM (inactive).

On to `CCOC(=O)C1C(=O)c2cccc(OC)c2C2COC(=O)N12` (stereo not given), for which the GI50 in assay [1], in [9], in assay [2], in assay [3], in assay [5] and in [6] was > 100 µM (inactive) throughout. Also, the GI50 in [7] and in assay [8] was > 100 µM (inactive) each time.

As to `N=C1SCCS1`, the GI50 in assay [9], in [2], in [4], in assay [5], in assay [6] and in [7] was > 100 µM (inactive) in each case.

As to `[O-][n+]1c2cc(CBr)c(CBr)cc2[n+]([O-])c2c(O)cccc21`, the GI50 in assay [1] is 2.39 µM (inactive); in assay [9], 2.35 µM (inactive); in assay [2] it was 1.73 µM (inactive); in [3] it was 1.68 µM (inactive); in [4], 1.94 µM (inactive); in assay [5], 1.41 µM (inactive). In addition, the figures for the GI50 in assay [6], in assay [7] and in assay [8] were 1.69 µM (inactive), 1.56 µM (inactive) and 3.15 µM (inactive), respectively.

For the molecule `CCCCCCCCCCCCCC(=O)OCC1OC(OC)C(NC(=O)N(CCCl)N=O)C(O)C1O` (stereo not given), the GI50 is > 100 µM (inactive) in [1]; 15.9 µM (inactive) in [9]; 12.9 µM (inactive) in assay [3]; 25.5 µM (inactive) in assay [4]; 20.8 µM (inactive) in assay [5]; 18.5 µM (inactive) in assay [6]. Further, the GI50 was 16.3 µM (inactive) in assay [7] and 20.9 µM (inactive) in assay [8].

With `C[N+](C)(C)CC(=O)N/N=C(/Cc1nc2ccc(Cl)cc2nc1O)C1=NS(=O)(=O)c2cc(S(N)(=O)=O)c(Cl)cc2N1`, the GI50 in [2], in assay [5] and in assay [6] was > 100 µM (inactive) each time.

Consider `CC1(C)COC(C23C4C5C2C2C3C4C52I)=N1` (stereo not given), for which the GI50 in assay [1], in assay [9], in assay [2], in [4], in [5] and in assay [6] was > 100 µM (inactive) in each case. Also, the GI50 in [7] was > 100 µM (inactive).

As to `CC1=CCN(c2ccccn2)OC1c1ccccc1` (stereo not given), the GI50 in [1], in [9], in assay [2], in assay [3], in [4] and in [5] was > 100 µM (inactive) in each case. For the same molecule, the GI50 in assay [6], in assay [7] and in [8] was > 100 µM (inactive) throughout.

In the case of `Nc1nc[n+](Cc2ccccc2)c2ncn(Cc3ccccc3)c12`, the GI50 is > 100 µM (inactive) in assay [1]; > 100 µM (inactive) in [2]; > 100 µM (inactive) in assay [3]; 75 µM (inactive) in assay [4]; 80.2 µM (inactive) in assay [5]; > 100 µM (inactive) in assay [7].

For the molecule `COC1C(O)C(C)OC(OC2C(Oc3cccc4c(O)c5c(=O)oc6ccc(C)c7c(=O)oc(c34)c5c67)OC(C)C(O)C2O)C1O` (stereo not given), the GI50 in [1] was 2.45 µM (inactive); in assay [9], 0.824 µM (active); in assay [2] it was 1.04 µM (active); in assay [3], 2.1 µM (inactive); in [4] it was 2 µM (inactive); in assay [5], 1.26 µM (inactive). Further, the GI50 in [6] is 0.918 µM (active).

For `COc1cc2c(c(OC)c1OC)-c1ccc(SC)c(=O)cc1[C@@H](NCc1cccc([N+](=O)[O-])c1)CC2`, the GI50 in [1] is > 100 µM (inactive); in [9], < 0.01 µM (active); in assay [2] it was < 0.01 µM (active); in assay [3], < 0.01 µM (active); in assay [4], < 0.01 µM (active); in assay [5], < 0.01 µM (active). In addition, the GI50 in assay [6], in [7] and in [8] was < 0.01 µM (active) in each case.

In the case of `NC(CSC(c1ccccc1)(c1ccccc1)c1ccccc1)C(=O)O` (stereo not given), the GI50 was 4.14 µM (inactive) in [1]; 3.19 µM (inactive) in assay [2]; 0.235 µM (active) in [3]; 2.61 µM (inactive) in [4]; 0.7 µM (active) in assay [5]; 7.76 µM (inactive) in assay [7].

`O=C1/C(=C\c2ccccc2)c2ccccc2N1/N=C\c1ccccc1`: the GI50 in [1] is > 100 µM (inactive); in assay [9] it was > 100 µM (inactive); in [2], 97.7 µM (inactive); in assay [3] it was > 100 µM (inactive); in [4] it was > 100 µM (inactive); in [5], 59 µM (inactive). Besides, the GI50 in [6] was > 100 µM (inactive).
